viability, inhibition and Activity data for 2 molecules are collected here from ChEMBL document CHEMBL6083190, “Synthesis and mechanistic study of Aβ42 C-terminus domain derived tetrapeptides that inhibit Alzheimer's Aβ-aggregation-induced neurotoxicity” (Bioorg Med Chem Lett, 2024).

One may read the inhibition as the relative decrease from the control value, in per cent.

The test system of data set [1] is SH-SY5Y. Nature of the data set: Inhibition of amyloid beta (1 to 42)-induced toxicity in human SH-SY5Y cells assessed as cell survival at 50 uM incubated for 24 hrs by MTT assay relative to control. Conditions: read-out: Survival. It is filed as functional. Background: Tetrazolium assays rely on reduction of a dye to a coloured formazan, in cell work by metabolically active cells.

In data set [2] the test system is PC-12. Nature of the data set: Protection against amyloid beta-induced neurotoxicity in rat PC-12 cells assessed as cell viability at 2 uM by MTT assay (reference value: 63.6 %). The data set is classed as functional. Conditions: read-out: Activity.
Data set [3] has as its system PC-12. Nature of the data set: Protection against amyloid beta-induced neurotoxicity in rat PC-12 cells assessed as cell viability at 4 uM by MTT assay (reference value: 63.6 %). It is filed as functional. Conditions: read-out: Activity.
Data set [4] relates to PC-12. Nature of the data set: Protection against amyloid beta-induced neurotoxicity in rat PC-12 cells assessed as cell viability at 10 uM by MTT assay (reference value: 63.6 %). The data set is classed as functional. Conditions: read-out: Activity.
Data set [5] is described as follows: Inhibition of amyloid beta-induced neurotoxicity in rat PC-12 cells at 2 uM by MTT assay relative to control. The data set is classed as functional.
A short description of data set [6]: Inhibition of amyloid beta-induced neurotoxicity in rat PC-12 cells at 4 uM by MTT assay relative to control. It is filed as functional.
Data set [7] can be described thus: Inhibition of amyloid beta-induced neurotoxicity in rat PC-12 cells at 10 uM by MTT assay relative to control. The data set is classed as functional.
For data set [8], the target named is Amyloid-beta precursor protein (Homo sapiens) (UniProt P05067). The experiment in a line: Inhibition of amyloid beta (1 to 42) (unknown origin) self aggregation at 2 uM by ThT fluorescence assay relative to control.
For data set [9] the target is unchanged. The experiment in a line: Inhibition of amyloid beta (1 to 42) (unknown origin) self aggregation at 10 uM by ThT fluorescence assay relative to control.
Data set [10] has the same target. The experiment in a line: Inhibition of amyloid beta (1 to 42) (unknown origin) self aggregation at 2 to 10 uM by ThT fluorescence assay. Conditions: dose 2-10 µM.
For data set [11] the target is unchanged. The experiment in a line: Inhibition of amyloid beta (1 to 42) (unknown origin) self-aggregation measured for 7 days by ThT fluorescence assay. Conditions: time 7.0 day.
For data set [12] the target is unchanged. The experiment in a line: Inhibition of amyloid beta (1 to 42 ) (unknown origin) self aggregation in liposome-mimicked rat neuronal membrane assessed as fluorescence quenching at 1:5 amyloid-beta:compound concentration ratio incubated for 72 hrs by ANS fluorescence spectra. Conditions: Neuron. It is filed as cell membranes.
Data set [13] shares this target. The experiment in a line: Inhibition of amyloid beta (1 to 42) (unknown origin) self-aggregation assessed as alpha-helix content at 1:5 amyloid-beta:compound concentration ratio incubated for 48 hrs by CD spectroscopy (reference value: 0 %). Also on record: scale not given: the % may be the effect or the level left.
Data set [14] shares this target. Nature of the data set: Inhibition of amyloid beta (1 to 42) (unknown origin) self-aggregation assessed as beta-sheet content at 1:5 amyloid-beta:compound concentration ratio incubated for 48 hrs by CD spectroscopy (reference value: 55.2 %). Also on record: scale not given: the % may be the effect or the level left.
Data set [15] has the same target. Nature of the data set: Inhibition of amyloid beta (1 to 42) (unknown origin) self-aggregation assessed as beta-turn content at 1:5 amyloid-beta:compound concentration ratio incubated for 48 hrs by CD spectroscopy (reference value: 44.8 %). Details: scale not given: the % may be the effect or the level left.
The target is the same in data set [16]. Nature of the data set: Inhibition of amyloid beta (1 to 42) (unknown origin) self-aggregation assessed as random coil content at 1:5 amyloid-beta:compound concentration ratio incubated for 48 hrs by CD spectroscopy (reference value: 0 %). Also on record: scale not given: the % may be the effect or the level left.
For data set [17] the target is unchanged. Nature of the data set: Inhibition of amyloid beta (1 to 40) (unknown origin) self-aggregation assessed as alpha-helix content at 1:5 amyloid-beta:compound concentration ratio incubated for 48 hrs by CD spectroscopy (reference value: 0 %). Also on record: scale not given: the % may be the effect or the level left.
The target is the same in data set [18]. Nature of the data set: Inhibition of amyloid beta (1 to 40) (unknown origin) self-aggregation assessed as beta-sheet content at 1:5 amyloid-beta:compound concentration ratio incubated for 48 hrs by CD spectroscopy (reference value: 59.7 %). Also on record: scale not given: the % may be the effect or the level left.
For data set [19] the target is unchanged. Nature of the data set: Inhibition of amyloid beta (1 to 40) (unknown origin) self-aggregation assessed as beta-turn content at 1:5 amyloid-beta:compound concentration ratio incubated for 48 hrs by CD spectroscopy (reference value: 0 %). Also on record: scale not given: the % may be the effect or the level left.
Data set [20] shares this target. Nature of the data set: Inhibition of amyloid beta (1 to 40) (unknown origin) self-aggregation assessed as random coil content at 1:5 amyloid-beta:compound concentration ratio incubated for 48 hrs by CD spectroscopy (reference value: 40.3 %). Also on record: scale not given: the % may be the effect or the level left.
Data set [21] has the same target. The experiment in a line: Inhibition of amyloid beta (1 to 40)/amyloid beta (1 to 42) (unknown origin) self-aggregation assessed as alpha-helix content at 1:5 amyloid-beta:compound concentration ratio incubated for 48 hrs by CD spectroscopy (reference value: 0 %). Also on record: scale not given: the % may be the effect or the level left.
The target is the same in data set [22]. The experiment in a line: Inhibition of amyloid beta (1 to 40)/amyloid beta (1 to 42) (unknown origin) self-aggregation assessed as beta-sheet content at 1:5 amyloid-beta:compound concentration ratio incubated for 48 hrs by CD spectroscopy (reference value: 70.8 %). Also on record: scale not given: the % may be the effect or the level left.
Data set [23] has the same target. Nature of the data set: Inhibition of amyloid beta (1 to 40)/amyloid beta (1 to 42) (unknown origin) self-aggregation assessed as beta-turn content at 1:5 amyloid-beta:compound concentration ratio incubated for 48 hrs by CD spectroscopy (reference value: 29.2 %). Details: scale not given: the % may be the effect or the level left.
For data set [24] the target is unchanged. The experiment in a line: Inhibition of amyloid beta (1 to 40)/amyloid beta (1 to 42) (unknown origin) self-aggregation assessed as random coil content at 1:5 amyloid-beta:compound concentration ratio incubated for 48 hrs by CD spectroscopy (reference value: 0 %). Also on record: scale not given: the % may be the effect or the level left.
Data set [25] shares this target. Nature of the data set: Inhibition of amyloid beta (1 to 42 ) (unknown origin) self-aggregation assessed as decrease in appearance of peak at m/z 685.4383 at 1:5 amyloid-beta:compound concentration ratio incubated for 72 hrs by HRMS-ESI analysis.
For data set [26] the target is unchanged. Nature of the data set: Inhibition of amyloid beta (1 to 42 ) (unknown origin) self-aggregation assessed as appearance of peak at m/z 1224.4239 at 1:5 amyloid-beta:compound concentration ratio incubated for 72 hrs by HRMS-ESI analysis.
Data set [27] has the same target. The experiment in a line: Inhibition of amyloid beta (1 to 42 ) (unknown origin) self-aggregation assessed as appearance of peak at m/z 722.4940 at 1:5 amyloid-beta:compound concentration ratio incubated for 72 hrs by HRMS-ESI analysis.
Data set [28] has the same target. Nature of the data set: Inhibition of amyloid beta (1 to 42 ) (unknown origin) self-aggregation assessed as appearance of peak at m/z 507.3270 at 1:5 amyloid-beta:compound concentration ratio incubated for 72 hrs by HRMS-ESI analysis.
The target is the same in data set [29]. Nature of the data set: Inhibition of amyloid beta (1 to 42) (unknown origin) self-aggregation assessed as absence of fibrillar aggregates at 1:5 amyloid-beta:compound concentration ratio incubated for 72 hrs by high-resolution transmission electron microscopic analysis.
Data set [30] shares this target. The experiment in a line: Inhibition of amyloid beta (1 to 42) (unknown origin) self-aggregation assessed as absence of fibrillar aggregates at 1:5 amyloid-beta:compound concentration ratio incubated for 72 hrs by scanning transmission electron microscopic analysis.
Data set [31] shares this target. The experiment in a line: Inhibition of amyloid beta (1 to 42) (unknown origin) self-aggregation assessed as absence of fibrillar aggregates at 1:5 amyloid-beta:compound concentration ratio measured immediately by high-resolution transmission electron microscopic analysis.
For data set [32] the target is unchanged. The experiment in a line: Inhibition of amyloid beta (1 to 42) (unknown origin) self-aggregation assessed as absence of fibrillar aggregates at 1:5 amyloid-beta:compound concentration ratio measured immediately by scanning transmission electron microscopic analysis.
For data set [33] the target is unchanged. The experiment in a line: Inhibition of amyloid beta (1 to 42) (unknown origin) self-aggregation assessed as reduction in polydispersity index measured after 7 days by dynamic light scattering analysis. Conditions: time 7.0 day.
Data set [34] has the same target. The experiment in a line: Inhibition of amyloid beta (1 to 42) (unknown origin) self-aggregation assessed as Z-average value measured after 7 days by dynamic light scattering analysis. Conditions: time 7.0 day.
Data set [35] is described as follows: Cytotoxicity against rat PC-12 cells assessed as cell viability at 20 uM by MTT assay relative to control. Conditions: read-out: Activity. It is filed as toxicity, cell-based.
Data set [36] is described as follows: Cytotoxicity against rat PC-12 cells assessed as cell viability at 50 uM by MTT assay relative to control. It is filed as toxicity, cell-based. Conditions: read-out: Activity.

Activity calls are given as the source filed them. No cut-off for these calls is given here. Non-standard residues stand in square brackets, D forms with d. Residues, ends and D or L forms follow the SMILES beside them. Aib = CC(C)(N)C(=O)O

Amyloid-beta precursor protein (Homo sapiens), sequence (P05067 whole entry): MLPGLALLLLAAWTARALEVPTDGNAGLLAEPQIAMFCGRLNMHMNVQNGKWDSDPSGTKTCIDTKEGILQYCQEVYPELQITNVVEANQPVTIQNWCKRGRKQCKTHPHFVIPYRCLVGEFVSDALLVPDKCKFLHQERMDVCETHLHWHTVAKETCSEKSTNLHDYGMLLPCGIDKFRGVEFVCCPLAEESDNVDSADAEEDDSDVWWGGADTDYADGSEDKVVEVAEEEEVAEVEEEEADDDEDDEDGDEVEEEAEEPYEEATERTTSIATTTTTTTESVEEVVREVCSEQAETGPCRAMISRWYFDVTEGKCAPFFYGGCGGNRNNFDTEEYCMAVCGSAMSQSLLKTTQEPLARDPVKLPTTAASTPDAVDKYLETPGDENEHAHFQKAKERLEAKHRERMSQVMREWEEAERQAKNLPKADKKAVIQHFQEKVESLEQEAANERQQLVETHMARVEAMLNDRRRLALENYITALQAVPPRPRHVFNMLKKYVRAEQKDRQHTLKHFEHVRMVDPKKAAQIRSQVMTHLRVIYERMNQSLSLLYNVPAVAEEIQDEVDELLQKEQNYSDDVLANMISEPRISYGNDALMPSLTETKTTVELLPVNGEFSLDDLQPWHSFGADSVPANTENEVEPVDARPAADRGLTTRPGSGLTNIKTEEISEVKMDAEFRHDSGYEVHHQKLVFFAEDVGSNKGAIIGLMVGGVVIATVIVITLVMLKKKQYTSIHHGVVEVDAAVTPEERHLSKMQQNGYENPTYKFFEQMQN

Regarding H-RIIGL-NH2, the viability at 50 µM in data set [1] turned out to be 84%.

Consider `CC[C@H](C)[C@H](NC(=O)[C@H](C)N)C(=O)NC(C)(C)C(=O)N[C@H](C(N)=O)C(C)C` (H-AI[Aib]V-NH2), for which, in [2], the viability at 2 µM is 66.1%. In addition, in data set [3], the viability at 4 µM is 82.8%. Further, in [4], the viability at 10 µM came out at 90.2%. In [5], this molecule had an inhibition at 2 µM of 7%. The molecule further returned an inhibition at 4 µM in data set [6] of 53%. The inhibition at 10 µM in data set [7] was 73%. Moreover, the inhibition in data set [8] is 62.7%; in [9], 80.8%; in data set [12], “Active; Blue Shift Of 2 To 3 Nm And Isoemissive Point At ~427 Nm Observed”; in [25], “Active; Peak Corresponds To Aggregates”; in [26], “Active; Peaks Corresponds To [(Amyloidbeta (21 To 42) + M)4+ ]”; in data set [27], “Active; Peaks Corresponds To [Amyloidbeta (1 To 42) + M + Na]7+”. Also, in data set [28], the inhibition entry was “Active; Peaks Corresponds To [Amyloidbeta (1 To 42) + M]4+”. Also, the inhibition entry in [10], in [11], in [29], in data set [30], in [31] and in [32] was “Active” in each case. Moreover, the inhibition result in data set [33] and in data set [34] was “Active” each time. The Activity is 14.4% in data set [13]; 0% in data set [14]; 49% in data set [15]; 36.6% in data set [16]; 21.6% in [17]; 0% in [18]. In addition, the Activity in [19] was determined as 40.3%; in data set [20] it was 38.1%; in data set [21], 23.9%; in data set [22] it was 1.9%; in [23] it was 48.4%; in [24] it was 25.7%. In [35], the viability at 20 µM turned out to be 98.5%. Further, the viability at 50 µM in data set [36] was found to be 97.9%.
